Reference: article PMC6272992, “Synthesis and Cytotoxic Effect of Some Novel 1,2-Dihydropyridin-3-carbonitrile and Nicotinonitrile Derivatives” (Molecules, 2015)
Values after ≈ are worked out from the molar mass of the structure shown.

What was measured:
[1] = tested on: WI 38 (normal fibroblast cells); experiment: SRB cell growth assay, normal cells WI 38; type: cell-based, human; settings: 48 h exposure, non-cytotoxic = IC50 > 100 μg/mL; for IC50: Homo sapiens
Protocol: (§1) The in vitro cytotoxic activity the newly synthesized compounds against human breast cell line (MCF7), non-small cell lung cancer NCI-H460, CNS cancer SF-268 and WI 38 (normal fibroblast cells) were evaluated using doxorubicin as the reference drug, according to the method reported by Skehan et al..
(§2) The newly synthesized compounds were evaluated in vitro against three human cancer cell lines; which are MCF-7 (breast adenocarcinoma), NCI-H460 (non-small cell lung cancer) and SF-268 (CNS cancer), and WI 38 (normal fibroblast cells) were used in this study. MCF-7 was obtained from the European Collection of Cell Cultures (ECACC, Salisbury, UK) but NCI-H460, SF-268 and WI 38 were kindly provided by the National Cancer Institute (NCI, Cairo, Egypt). They grow as monolayers routinely maintained in RPMI-1640 medium supplemented with 5% heat inactivated fetal bovine serum (FBS), 2 mM glutamine and antibiotics (penicillin 100 U/mL, streptomycin 100 µg/mL), at 37 °C in a humidified atmosphere containing 5% CO2. Exponentially growing cells were obtained by plating 1.5 × 10^5 cells/mL for MCF-7 and SF-268, and 0.75 × 10^4 cells/mL for NCI-H460 followed by 24 h of incubation. The effect of the vehicle solvent (DMSO) on the growth of these cell lines was evaluated in all experiments by exposing untreated control cells to the maximum concentration (0.5%) of DMSO used in each assay.
(§3) The effect of compounds on the in vitro growth of human tumor cell lines were evaluated according to the procedure adopted by the National Cancer Institute (NCI, […], USA) in the “In vitro Anticancer Drug Discovery Screen” that uses the protein-binding dye sulforhodamine B (SRB) to assess cell growth. In the assay protocol, all cells were incubated at 37 °C under humidified atmosphere containing 5% CO2. Briefly, exponentially cells growing in 96-well plates were then exposed for 48 h to five serial concentrations of each compound, starting from a maximum concentration of 150 μg/mL. Following this exposure period, adherent cells were fixed, washed and stained. The bound stain was solubilized and the absorbance was measured at 492 nm in a Power Wave XS plate reader (Bio-Tek Instruments Inc., Winston, NC, USA). For each test compound and cell line, a dose response curve was obtained and the inhibitory concentration of 50% (IC50), corresponding to the concentration of the compounds that inhibited 50% of the net cell growth was calculated as described elsewhere. Doxorubicin was used as a positive control and tested in the same manner.

SF-268 (CNS cancer) = experiment: SRB cancer cell growth assay, SF-268; type: cell-based, human; design: key to activity class SF-268: highly active; b: moderately active; weakly active; settings: for IC50: Homo sapiens, SF-268, 48 h exposure, SRB, read-out: IC50 (μg/mL) SF-268
Protocol: as §1, §2, §3

[2] = tested on: MCF-7 (breast adenocarcinoma); experiment: SRB cancer cell growth assay, MCF-7; type: cell-based, human; design: key to activity class MCF-7: highly active; b: moderately active; weakly active; settings: for IC50: Homo sapiens, MCF7, MCF-7, 48 h exposure, SRB, read-out: IC50 (μg/mL) MCF-7
Protocol: as §1, §2, §3

[3] = tested on: NCI-H460 (non-small cell lung cancer); experiment: SRB cancer cell growth assay, NCI-H460; type: cell-based, human; design: key to activity class NCI-H460: highly active; b: moderately active; weakly active; settings: for IC50: Homo sapiens, NCI-H460, 48 h exposure, SRB, read-out: IC50 (μg/mL) NCI-H460
Protocol: as §1, §2, §3

melting point	IC50 (SF-268 (CNS cancer))	IC50 [2]	IC50 [3]	SMILES	IC50 [1]	activity class SF-268 (SF-268 (CNS cancer))	activity class MCF-7 [2]	activity class NCI-H460 [3]	IC50 (μg/mL) WI 38 [1]
309 to 311 °C	69 ± 9.15 µg/mL (≈ 185 µM)	67 ± 6.23 µg/mL (≈ 180 µM)	56.8 ± 8.2 µg/mL (≈ 152 µM)	Nc1nnc2[nH]c(-c3ccc(Cl)cc3Cl)cc(-c3ccc(F)cc3)c1-2 [Compound 4, 6-(2,4-Dichlorophenyl)-4-(4-fluorophenyl)-7H-pyrazolo[3,4-b]pyridin-3-amine]	18.6 ± 1.21 µg/mL (≈ 49.9 µM)	c	c	c	
223 to 224 °C	2.19 ± 0.83 µg/mL (≈ 5.87 µM)	0.61 ± 0.082 µg/mL (≈ 1.63 µM)	0.86 ± 0.02 µg/mL (≈ 2.3 µM)	N#Cc1c(-c2ccc(F)cc2)cc(-c2ccc(Cl)cc2Cl)nc1NN [Compound 17, 6-(2,4-Dichlorophenyl)-4-(4-fluorophenyl)-2-hydrazinylnicotinonitrile]	64.1 ± 1.22 µg/mL (≈ 172 µM)	a	a	a	
119 to 121 °C	0.02 ± 0.045 µg/mL (≈ 0.0449 µM)	0.02 ± 0.002 µg/mL (≈ 0.0449 µM)	0.01 ± 0.002 µg/mL (≈ 0.0225 µM)	CCOC(=O)COc1nc(-c2ccc(Cl)cc2Cl)cc(-c2ccc(F)cc2)c1C#N [Compound 8, Ethyl 2-[3-cyano-6-(2,4-dichlorophenyl)-4-(4-fluorophenyl)pyridin-2-yloxy]acetate]	> 100 µg/mL	a	a	a	non-cytotoxic
